Experimental data from publication PMC8699473, “An Easily Expandable Multi-Drug LC-MS Assay for the Simultaneous Quantification of 57 Oral Antitumor Drugs in Human Plasma” (Cancers, 2021).

Assay: Long-term stability in spiked pooled human plasma

SMILES | Long-term stability, 1 month, -20°C Accuracy [%] (validation standard 2xLLOV) | Long-term stability, 1 month, -80°C Accuracy [%] (validation standard 2xLLOV) | Long-term stability, 2 month, -20°C Accuracy [%] (validation standard 2xLLOV) | Long-term stability, 2 month, -80°C Accuracy [%] (validation standard 2xLLOV) | Long-term stability, 3 month, -20°C Accuracy [%] (validation standard 2xLLOV) | Long-term stability, 3 month, -80°C Accuracy [%] (validation standard 2xLLOV) | Long-term stability, 6 weeks, 4°C, without daylight Accuracy [%] (validation standard 2xLLOV) | Long-term stability, 1 month, -20°C Accuracy [%] (validation standard LLOV) | Long-term stability, 1 month, -80°C Accuracy [%] (validation standard LLOV) | Long-term stability, 2 month, -20°C Accuracy [%] (validation standard LLOV) | Long-term stability, 2 month, -80°C Accuracy [%] (validation standard LLOV) | Long-term stability, 3 month, -20°C Accuracy [%] (validation standard LLOV) | Long-term stability, 3 month, -80°C Accuracy [%] (validation standard LLOV) | Long-term stability, 6 weeks, 4°C, without daylight Accuracy [%] (validation standard LLOV) | Long-term stability, 1 month, -20°C Accuracy [%] (validation standard MOV) | Long-term stability, 1 month, -80°C Accuracy [%] (validation standard MOV) | Long-term stability, 2 month, -20°C Accuracy [%] (validation standard MOV) | Long-term stability, 2 month, -80°C Accuracy [%] (validation standard MOV) | Long-term stability, 3 month, -20°C Accuracy [%] (validation standard MOV) | Long-term stability, 3 month, -80°C Accuracy [%] (validation standard MOV) | other results
Cc1cn(-c2cc(NC(=O)c3ccc(C)c(Nc4nccc(-c5cccnc5)n4)c3)cc(C(F)(F)F)c2)cn1 [Nilotinib] | 95.1% | 89.2% | 96.9% | 99.7% | 91.6% | 92.2% | 103.4% | 91.9% | 89.8% | 93.3% | 97.4% | 90.5% | 93.1% | 102.0% | 95.6% | 91.9% | 99.1% | 98.0% | 96.9% | 93.1% | Long-term stability, 6 weeks, 4°C, without daylight Accuracy [%] (validation standard MOV): 101.7%; Long-term stability, 1 month, -20°C Accuracy [%] (validation standard ULOV): 94.2%; Long-term stability, 1 month, -80°C Accuracy [%] (validation standard ULOV): 90.9%; Long-term stability, 2 month, -20°C Accuracy [%] (validation standard ULOV): 97.5%; Long-term stability, 2 month, -80°C Accuracy [%] (validation standard ULOV): 97.0%; Long-term stability, 3 month, -20°C Accuracy [%] (validation standard ULOV): 93.1%; Long-term stability, 3 month, -80°C Accuracy [%] (validation standard ULOV): 91.6%; Long-term stability, 6 weeks, 4°C, without daylight Accuracy [%] (validation standard ULOV): 98.0%
COC(=O)c1ccc2c(c1)NC(=O)/C2=C(\Nc1ccc(N(C)C(=O)CN2CCN(C)CC2)cc1)c1ccccc1 [Nintedanib] | 97.2% | 98.9% | 103.8% | 99.7% | 90.3% | 91.1% | 94.4% | 102.0% | 102.1% | 96.9% | 94.3% | 88.2% | 88.3% | 86.6% | 95.5% | 91.4% | 98.9% | 99.7% | 97.2% | 94.7% | Long-term stability, 6 weeks, 4°C, without daylight Accuracy [%] (validation standard MOV): 94.4%; Long-term stability, 1 month, -20°C Accuracy [%] (validation standard ULOV): 94.5%; Long-term stability, 1 month, -80°C Accuracy [%] (validation standard ULOV): 87.4%; Long-term stability, 2 month, -20°C Accuracy [%] (validation standard ULOV): 97.0%; Long-term stability, 2 month, -80°C Accuracy [%] (validation standard ULOV): 94.8%; Long-term stability, 3 month, -20°C Accuracy [%] (validation standard ULOV): 92.9%; Long-term stability, 3 month, -80°C Accuracy [%] (validation standard ULOV): 91.8%; Long-term stability, 6 weeks, 4°C, without daylight Accuracy [%] (validation standard ULOV): 85.9%
NC(=O)c1cccc2cn(-c3ccc([C@@H]4CCCNC4)cc3)nc12 [Niraparib] | 101.4% | 94.5% | 104.1% | 106.0% | 99.8% | 95.7% | 96.1% | 97.8% | 93.4% | 101.8% | 102.4% | 96.1% | 95.4% | 94.3% | 99.8% | 99.6% | 105.3% | 103.9% | 102.2% | 100.4% | Long-term stability, 6 weeks, 4°C, without daylight Accuracy [%] (validation standard MOV): 104.5%; Long-term stability, 1 month, -20°C Accuracy [%] (validation standard ULOV): 100.8%; Long-term stability, 1 month, -80°C Accuracy [%] (validation standard ULOV): 98.5%; Long-term stability, 2 month, -20°C Accuracy [%] (validation standard ULOV): 103.3%; Long-term stability, 2 month, -80°C Accuracy [%] (validation standard ULOV): 104.1%; Long-term stability, 3 month, -20°C Accuracy [%] (validation standard ULOV): 100.4%; Long-term stability, 3 month, -80°C Accuracy [%] (validation standard ULOV): 101.8%; Long-term stability, 6 weeks, 4°C, without daylight Accuracy [%] (validation standard ULOV): 96.4%
